Test [1] addresses T1, Full-length (FL)-PRMT5-MEP50 enzyme complex (Homo sapiens, UniProt O14744).
T1 construct: Full-length (FL)-PRMT5-MEP50 enzyme complex (recombinant proteins from baculovirus-transfected Sf21 cells: FL-PRMT5; MW=73837 kDa and FL-MEP50; MW=38614); made in house; host or cells: baculovirus-transfected Sf21 cells
Put plainly: PRMT5-MEP50 Enzyme Methylation Assay (Version A). It counts as biochemical. The procedure, abridged: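 Compound was pre-incubated with enzyme for 60 min, then reacted 150 min at 37° C. at final 1.0 nM PRMT5-MEP50, 15 μM SAM and 75 nM biotinylated H4R3(Me1) peptide, in 50 mM Bicine pH 8.0 with 1% DMSO. SAMDI mass-spectrometric readout of Me1→Me2 conversion. EC50 from 4- or 7-parameter regression.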

The subject of test [2] is symmetric dimethylation of arginine (SDMA) of PRMT5 substrates in MCF-7 cells. The experiment in a line: PRMT5 Cell Target Engagement (TE) Assay. It counts as cell-based. As to conditions: Homo sapiens, MCF7, 72 h, 3 days treatment, SDMA high content imaging. The procedure, abridged: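 Readout is single-cell nuclear symmetric-dimethylarginine immunofluorescence (Alexa488), normalized to DMSO-treated cells. Compounds were applied to MCF-7 cells for 3 days at 37 °C, top concentration 10000 nM in 1:3 steps over ten points; curves fitted with 4-parameter robust fit.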

Setting [3] is: second value of 7 parameter biphasic fit, read-out: Enzyme Methylation Assay Version A (EC50 2).
The mark [4] stands for this setting: single EC50 = 4 parameter single site sigmoidal fit, EC50 1 = first value of 7 parameter biphasic fit, read-out: Enzyme Methylation Assay Version A (EC50 or EC50 1).

Read-outs that look alike come from different tables or passages of the source. A value given as a limit tells only on which side of the number the result lay.

T1 sequence (O14744 whole entry): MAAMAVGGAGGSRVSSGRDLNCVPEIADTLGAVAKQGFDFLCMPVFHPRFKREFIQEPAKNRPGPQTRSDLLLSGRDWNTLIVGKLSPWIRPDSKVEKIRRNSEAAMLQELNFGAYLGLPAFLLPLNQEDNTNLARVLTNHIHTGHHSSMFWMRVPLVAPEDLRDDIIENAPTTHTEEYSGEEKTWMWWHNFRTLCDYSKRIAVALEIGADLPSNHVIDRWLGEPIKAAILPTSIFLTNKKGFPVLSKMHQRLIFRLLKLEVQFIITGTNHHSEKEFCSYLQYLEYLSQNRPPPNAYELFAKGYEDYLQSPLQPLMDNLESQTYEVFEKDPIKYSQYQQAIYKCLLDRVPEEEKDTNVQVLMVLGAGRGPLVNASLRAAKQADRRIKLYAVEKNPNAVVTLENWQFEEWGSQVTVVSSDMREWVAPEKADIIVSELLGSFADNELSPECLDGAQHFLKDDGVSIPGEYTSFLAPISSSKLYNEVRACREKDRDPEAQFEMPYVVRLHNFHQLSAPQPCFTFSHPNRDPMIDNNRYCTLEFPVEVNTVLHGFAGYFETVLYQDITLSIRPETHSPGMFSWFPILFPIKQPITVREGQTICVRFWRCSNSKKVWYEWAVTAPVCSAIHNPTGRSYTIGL
T1 sequence (Q9BQA1 whole entry partner): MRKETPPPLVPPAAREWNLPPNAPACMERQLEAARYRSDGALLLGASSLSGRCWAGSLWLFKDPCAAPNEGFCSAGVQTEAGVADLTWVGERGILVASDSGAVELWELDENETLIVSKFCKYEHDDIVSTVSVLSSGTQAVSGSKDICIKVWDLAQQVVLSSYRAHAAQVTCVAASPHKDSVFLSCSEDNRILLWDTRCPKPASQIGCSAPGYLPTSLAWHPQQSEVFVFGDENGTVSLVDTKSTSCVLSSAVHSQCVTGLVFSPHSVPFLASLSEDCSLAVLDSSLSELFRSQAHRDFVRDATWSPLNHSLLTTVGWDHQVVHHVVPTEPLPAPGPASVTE

For orientation: EC50 means the concentration that produces a half-maximal response. Turning to `O=C(c1cn(C(F)F)cn1)N1CC[C@]2(Cc3ccccc3CN2)[C@H](O)C1` [Example 224, [1-(difluoromethyl)-1H-imidazol-4-yl][(3R,3′R)-3′-hydroxy-1,4-dihydro-1′H,2H-spiro[isoquinoline-3,4′-piperidin]-1′-yl]methanone], the EC50 in test [1] (setting [3]) is 66800 nM; in test [1] (setting [4]), 3510 nM; in test [2] it was at least 10000 nM.

As for `Cc1ccc2c(c1)CN[C@@]1(CCN(C(=O)c3cn4cc(C5CC5)cnc4n3)C[C@H]1O)C2` [Example 228], the EC50 in test [1] (setting [4]) was 144 nM; in test [2] it was 254 nM.

On to `COCCN(C)c1cc([C@@H](C)OC)c2nc(C(=O)N3CC[C@]4(Cc5ccccc5CN4)[C@H](O)C3)cn2c1` [Example 229, [(3R,3′R)-3′-hydroxy-1,4-dihydro-1′H,2H-spiro[isoquinoline-3,4′-piperidin]-1′-yl]{8-[(1R)-1-methoxyethyl]-6-[(2-methoxyethyl)(methyl)amino]imidazo[1,2-a]pyridin-2-yl}methanone], for which the values for the EC50 in test [1] (setting [3]), in test [1] (setting [4]) and in test [2] were 234 nM, 0.602 nM and 22.6 nM, respectively.

`CO[C@H](C)c1cc(N2CCC(n3ccnc3)C2)cn2cc(C(=O)N3CC[C@]4(Cc5ccccc5CN4)[C@H](O)C3)nc12` (stereo partly drawn) [Example 230, [(3R,3′R)-3′-hydroxy-1,4-dihydro-1′H,2H-spiro[isoquinoline-3,4′-piperidin]-1′-yl]{6-[3-(1H-imidazol-1-yl)-1-pyrrolidinyl]-8-[(1R)-1-methoxyethyl]imidazo[1,2-a]pyridin-2-yl}methanone]: the EC50 in test [1] (setting [4]) came to 5.38 nM; in test [2] it was 124 nM.

Consider `CO[C@H](C)c1cc(N2Cc3cnn(C)c3C2)cn2cc(C(=O)N3CC[C@]4(Cc5ccccc5CN4)[C@H](O)C3)nc12` [Example 231, [(3R,3′R)-3′-hydroxy-1,4-dihydro-1′H,2H-spiro[isoquinoline-3,4′-piperidin]-1′-yl]{8-[(1R)-1-methoxyethyl]-6-(1-methyl-4,6-dihydropyrrolo[3,4-c]pyrazol-5(1H)-yl)imidazo[1,2-a]pyridin-2-yl}methanone], for which the EC50 was found to be 11.3 nM in test [1] (setting [4]) and 66.4 nM in test [2].

Turning to `CO[C@H](C)c1cc(N2CCn3nccc32)cn2cc(C(=O)N3CC[C@]4(Cc5ccccc5CN4)[C@H](O)C3)nc12` [Example 232, {6-(2,3-dihydro-1H-imidazo[1,2-b]pyrazol-1-yl)-8-[(1R)-1-methoxyethyl]imidazo[1,2-a]pyridin-2-yl}[(3R,3′R)-3′-hydroxy-1,4-dihydro-1′H,2H-spiro[isoquinoline-3,4′-piperidin]-1′-yl]methanone], the EC50 is 5 nM in test [1] (setting [4]) and 67.3 nM in test [2].

As to `CO[C@H](C)c1cc(N(C)CCn2ccnc2C)cn2cc(C(=O)N3CC[C@]4(Cc5ccccc5CN4)[C@H](O)C3)nc12` [Example 233, [(3R,3′R)-3′-hydroxy-1,4-dihydro-1′H,2H-spiro[isoquinoline-3,4′-piperidin]-1′-yl](8-[(1R)-1-methoxyethyl]-6-{methyl[2-(2-methyl-1H-imidazol-1-yl)ethyl]amino}imidazo[1,2-a]pyridin-2-yl)methanone], the concentration giving a half-maximal response (EC50) in test [1] (setting [4]) amounted to 3.69 nM; in test [2] it was 76.2 nM.

As to `CO[C@H](C)c1cc(N(C)Cc2nonc2C)cn2cc(C(=O)N3CC[C@]4(Cc5ccccc5CN4)[C@H](O)C3)nc12` [Example 234, [(3R,3′R)-3′-hydroxy-1,4-dihydro-1′H,2H-spiro[isoquinoline-3,4′-piperidin]-1′-yl](8-[(1R)-1-methoxyethyl]-6-{methyl[(4-methyl-1,2,5-oxadiazol-3-yl)methyl]amino}imidazo[1,2-a]pyridin-2-yl)methanone], the results for the EC50 in test [1] (setting [4]) and in test [2] were 6.82 nM and 23.8 nM, respectively.

Source of the values: patent publication US12441730B2, “PRMT5 inhibitors” (Merck Sharp & Dohme LLC, priority 2019, dated 2025).
